The test system of one test is ERK signaling process. Description: Western blot of signaling in L540 cells: ERK. Type of test: cell-based, human. Here is the method:
(§1) The human cancer cell lines used in the experiment were U87-MG (human malignant glioblastoma) and MDA-MB-231 (human malignant breast cancer) cell lines, and various kinds of human-derived blood and solid cancer cells including these human cancer cell lines were cultured as previously described (Jung J E, et al. FASEB J. 19, 1296-1298 (2005)). The human Hodgkin lymphoma cancer cell lines L540 and HLDM-2 used in the experiment were obtained from the German Collection of Microorganism and Cell Cultures (DSMZ, Germany) and cultured using RPMI 1640 medium containing 20% FBS in a 5% CO2 incubator at a temperature of 37° C.
(§2) Western blot analysis was performed (Jung J E, et al. FASEB J. 19, 1296-1298 (2005)). The cells were washed two times with PBS and suspended in the lysate (50 mM Tris-HCl, pH 7.4, 350 mM NaCl, 1% Triton X-100, 0.5% Nonidet P-40, 10% glycerol, 0.1% SDS, 1 mM EDTA, 1 mM EGTA, 1 mM Na3VO4, 1 mM PMSF, protease and phosphorylation inhibitor) and the cell membrane and nuclear membrane were crushed to lyse the cells. The insoluble protein fraction was removed by centrifugation, and the supernatant was mixed with SDS electrophoresis buffer and electrophoresis (SDS-PAGE) was performed to detect the protein with the desired antibody and to confirm the protein expression level.
(Immunoblotting shows a protein as a band on a membrane.)

A further test deals with T1, Src family kinase Lyn (Homo sapiens, UniProt P07948).
T1 construct: endogenous in cells; host or cells: L540
T1 sequence (P07948 whole entry): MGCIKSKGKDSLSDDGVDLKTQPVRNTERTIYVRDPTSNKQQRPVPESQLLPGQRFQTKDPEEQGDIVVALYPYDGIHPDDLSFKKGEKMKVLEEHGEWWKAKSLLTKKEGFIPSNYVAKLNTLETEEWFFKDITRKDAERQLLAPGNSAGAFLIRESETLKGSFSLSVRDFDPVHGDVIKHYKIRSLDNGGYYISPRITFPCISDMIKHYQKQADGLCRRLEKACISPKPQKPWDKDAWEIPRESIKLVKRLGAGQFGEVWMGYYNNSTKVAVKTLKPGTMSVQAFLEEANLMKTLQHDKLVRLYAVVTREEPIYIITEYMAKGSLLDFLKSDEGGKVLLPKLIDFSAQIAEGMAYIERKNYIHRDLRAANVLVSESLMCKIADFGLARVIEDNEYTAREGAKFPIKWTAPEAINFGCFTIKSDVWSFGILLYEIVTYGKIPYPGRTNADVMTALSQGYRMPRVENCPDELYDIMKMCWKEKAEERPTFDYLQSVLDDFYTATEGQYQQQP
In words: Western blot of signaling in L540 cells: Lyn. Type of test: cell-based. The procedure: as §1, §2

The target in test [1] is T2, STAT3 (Homo sapiens, UniProt P40763). Description: Western blot in Hodgkin lymphoma cell line L540. It counts as cell-based. As to conditions: L540 cells. Further details: endogenous in cells; host or cells: L540, HDLM-2, U87-MG, MDA-MB-231, further human glioblastoma and breast cancer lines. The procedure:
as §1, §2

The next test concerns the target T3, JAK3 (Homo sapiens, UniProt P52333).
T3 construct: endogenous in cells; host or cells: L540
T3 sequence (P52333 1-1124): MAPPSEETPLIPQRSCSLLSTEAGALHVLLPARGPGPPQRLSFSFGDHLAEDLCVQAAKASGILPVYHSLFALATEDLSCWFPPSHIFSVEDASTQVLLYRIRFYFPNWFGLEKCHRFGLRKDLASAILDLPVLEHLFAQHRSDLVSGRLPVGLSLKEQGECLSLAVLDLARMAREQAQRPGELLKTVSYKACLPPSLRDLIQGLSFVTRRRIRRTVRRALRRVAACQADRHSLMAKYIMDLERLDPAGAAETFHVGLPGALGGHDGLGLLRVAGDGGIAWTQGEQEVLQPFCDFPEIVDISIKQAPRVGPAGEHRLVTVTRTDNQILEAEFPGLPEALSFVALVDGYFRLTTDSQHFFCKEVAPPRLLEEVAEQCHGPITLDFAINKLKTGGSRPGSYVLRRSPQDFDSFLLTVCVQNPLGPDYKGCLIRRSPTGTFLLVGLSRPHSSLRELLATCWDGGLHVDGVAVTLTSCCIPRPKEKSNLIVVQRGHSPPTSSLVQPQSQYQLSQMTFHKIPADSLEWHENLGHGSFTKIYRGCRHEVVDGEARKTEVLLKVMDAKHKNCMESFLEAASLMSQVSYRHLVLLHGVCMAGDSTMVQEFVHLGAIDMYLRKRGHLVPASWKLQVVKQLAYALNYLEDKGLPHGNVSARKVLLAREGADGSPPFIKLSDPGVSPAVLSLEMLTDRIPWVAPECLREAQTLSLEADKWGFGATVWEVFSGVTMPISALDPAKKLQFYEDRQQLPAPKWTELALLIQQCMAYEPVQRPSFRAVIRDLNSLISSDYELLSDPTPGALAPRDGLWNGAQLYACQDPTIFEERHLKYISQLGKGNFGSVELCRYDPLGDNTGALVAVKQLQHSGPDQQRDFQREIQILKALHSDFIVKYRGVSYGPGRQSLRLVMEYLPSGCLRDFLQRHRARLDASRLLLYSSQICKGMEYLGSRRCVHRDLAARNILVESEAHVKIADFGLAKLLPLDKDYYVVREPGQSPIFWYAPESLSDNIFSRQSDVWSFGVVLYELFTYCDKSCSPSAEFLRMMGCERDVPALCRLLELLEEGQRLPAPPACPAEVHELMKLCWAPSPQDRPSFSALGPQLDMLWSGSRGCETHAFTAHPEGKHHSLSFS
In words: Western blot of upper signaling in L540 cells: JAK3. It counts as cell-based. Here is the method: as §1, §2

The subject of another test is SOCS3. In words: Western blot of SOCS3 expression in L540 cells. It counts as cell-based, human. Here is the method:
as §1, §2

The subject of the next test is STAT92E. Description: Drosophila cell luciferase assay (10XSTAT92E-luciferase reporter). It counts as cell-based. The note with it: activated by the ligand upd or Hop. Here is the method:
Drosophila cells (S2-NP, 24×3) used in the experiment were cultured as previously described (Kim B H, et al. Mol Cancer Ther. 7, 2672-2680 (2008)). S2-NP (Drosophila Schneider cell) cells were Drosophila-derived macrophage-like cells and were cultured in Schneider's medium. 24×3 cells were cell lines stably expressed by inserting 10XSTAT92E-luciferase and PolIII-Renilla luciferase-labeled plasmid DNA as reporter constructs into S2-NP cells and were cultured in a medium prepared by adding […] of geneticin to the same medium as that for S2-NP. S2-NP cells in which unpaired (upd) or HOPT^Tum-l as a ligand was expressed and 24×3 cells constructed with reporter constructs were mixed at a constant ratio and cultured for 24 hours in the presence of a compound, the expression level of STAT92E was measured using a luminometer, and the inhibition effect was compared with that of the DMSO-treated group.
In general terms: A reporter such as luciferase makes a cellular process visible.

The target of test [2] is T2, STAT3. In words: Western blot in HDLM-2 cells. Further details: endogenous in cells; host or cells: L540, HDLM-2, U87-MG, MDA-MB-231, further human glioblastoma and breast cancer lines. It counts as cell-based. Here is the method:
as §1, §2

Test [3] concerns the target T2, STAT3. Description: Western blot of the 46 Table 1 compounds in Hodgkin lymphoma cell lines L540 and HDLM-2. Type of test: cell-based. The note with it: for STAT3 inhibitory efficacy, first screening: L540 and HDLM-2. Further details: endogenous in cells; host or cells: L540, HDLM-2, U87-MG, MDA-MB-231, further human glioblastoma and breast cancer lines. Here is the method: as §1, §2

SMILES strings stand for the structures.

T2 sequence (P40763 whole entry): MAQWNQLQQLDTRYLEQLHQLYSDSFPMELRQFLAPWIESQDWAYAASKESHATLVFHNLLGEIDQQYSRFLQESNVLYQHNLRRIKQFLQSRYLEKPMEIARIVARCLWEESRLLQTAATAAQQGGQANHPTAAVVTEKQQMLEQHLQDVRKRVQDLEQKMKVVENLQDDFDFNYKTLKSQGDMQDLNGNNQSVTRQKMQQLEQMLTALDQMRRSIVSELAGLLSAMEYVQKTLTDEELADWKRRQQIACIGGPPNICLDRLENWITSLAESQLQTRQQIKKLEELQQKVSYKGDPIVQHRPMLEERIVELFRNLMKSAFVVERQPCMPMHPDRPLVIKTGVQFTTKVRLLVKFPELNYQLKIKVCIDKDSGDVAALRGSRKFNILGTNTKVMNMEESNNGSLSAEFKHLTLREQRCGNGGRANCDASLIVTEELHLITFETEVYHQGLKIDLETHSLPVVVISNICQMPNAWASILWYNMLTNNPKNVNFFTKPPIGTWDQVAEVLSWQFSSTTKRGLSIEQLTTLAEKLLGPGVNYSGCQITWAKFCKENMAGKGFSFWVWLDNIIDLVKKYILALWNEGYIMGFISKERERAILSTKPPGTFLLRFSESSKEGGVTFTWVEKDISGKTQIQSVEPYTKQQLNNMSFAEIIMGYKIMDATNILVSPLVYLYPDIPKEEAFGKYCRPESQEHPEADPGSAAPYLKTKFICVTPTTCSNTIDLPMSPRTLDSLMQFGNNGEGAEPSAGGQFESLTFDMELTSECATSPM

For `CC(C)(C)c1nc(COc2cccc([N+](=O)[O-])c2)no1` [ODZ17690, 5-tert-butyl-3-(3-nitro-phenoxymethyl)-[1,2,4]oxadiazole], the “inhibitory action on ERK signaling process” value in the test with ERK signaling process is reported as “did not exert an inhibitory action”. For the same compound, the “inhibitory action on Src family kinase Lyn” value against Src family kinase Lyn is “did not exert an inhibitory action”. Besides, the “phosphorylation of tyrosine residue 705 of STAT3” value on STAT3 [1] is “effectively inhibited the phosphorylation of tyrosine residue 705 of STAT3”; at STAT3 [2], “selectively inhibited phosphorylation of tyrosine residue 705 of STAT3”. Further, on STAT3 [1], the “selective inhibitory action on STAT3 versus STAT1 or STAT5” value is “stronger selective inhibitory action on STAT3 than on STAT1 or STAT5”. At JAK3, the “inhibitory action on JAK3” value is “weak inhibitory action”. Besides, the “expression of SOCS3” value with SOCS3 is recorded as “effectively inhibited”. The “expression of STAT92E (luciferase assay)” value in the test on STAT92E is “effectively inhibited the expression of STAT92E”.
For `O=C(NCC1CCCO1)C1CC(=O)N(c2ccc(O)cc2)C1` (stereo not drawn) [compound 45, 1-(4-hydroxyphenyl)-5-oxo-N-(tetrahydro-2-furanylmethyl)-3-pyrrolidinecarboxamide], the “STAT3 inhibitory efficacy, first screening” value at STAT3 [3] is “judged to exert superior STAT3 inhibitory efficacy”.
Consider `Cc1ccc(S(=O)(=O)Nc2cccc(C(=O)Nc3cccnc3)c2)cc1` [compound 46, 3-{[(4-methylphenyl)sulfonyl]amino}-N-3-pyridinylbenzamide], for which the “STAT3 inhibitory efficacy, first screening” value at STAT3 [3] was “judged to exert superior STAT3 inhibitory efficacy”. Also, the “STAT3 inhibitory efficacy, secondary screening” value at STAT3 [3] (L540 and HDLM-2, 50 μM) is on record as “judged to exert superior STAT3 inhibitory efficacy”. Besides, at STAT3 [3] (L540 and HDLM-2, various concentrations), the “phosphorylation of STAT tyrosine 705” value was “significantly inhibited the phosphorylation of STATdml tyrosine 705 in a concentration-dependent manner”.

The values above are taken from patent US20200354327A1, “COMPOUND HAVING STAT3 INHIBITORY ACTIVITY AND USE THEREOF” (CYTUS H&B CO., LTD., priority 2017, published 2020).
